These results are taken from patent publication US20100240598A1, “PEPTIDES AND PEPTIDE MIMETICS TO INHIBIT THE ONSET AND/OR PROGRESSION OF FIBROTIC AND/OR PRE-FIBROTIC PATHOLOGIES” (THE REGENTS OF THE UNIVERSITY OF CALIFORNIA, priority 2009, published 2010).

Entries after “also recorded” stand apart in the source; their conditions may differ. Read-outs that look alike come from different tables or passages of the source.

Series [1] concerns Human aortic endothelial cells. The experiment in a line: Prevention of LDL-induced monocyte chemotactic activity by pre-treatment (pre-incubation) of artery wall cells. The class given is cell-based. Conditions: 6 hrs pre-incubation, then control human LDL 200 μg protein/ml. The procedure:
FIG. 2 illustrates a comparison of the effect of D-4F with the effect of D-J336 on the prevention of LDL induced monocyte chemotactic activity in a pre-incubation. Human aortic endothelial cells were pre-incubated with D-J336 or D-4F at 4, 2, and 1 μg/ml for DJ336 or 100, 50, 25, and 12.5 μg/ml for D-4F for 6 hrs. The cultures were then washed and were incubated with medium alone (no addition), or with control human LDL (200 μg protein/ml), or with control human LDL+control human HDL (350 μg HDL protein/ml) as assay controls. The wells that were pre-treated with peptides received the control human LDL at 200 μg protein/ml. Following overnight incubation, the supernatants were assayed for monocyte chemotactic activity.

In series [2] the test system is Human aortic endothelial cells. The experiment in a line: Prevention of LDL-induced monocyte chemotactic activity in vitro, co-incubation. The class given is cell-based. Conditions: co-incubation with control human LDL 200 μg protein/ml, overnight. The procedure: FIG. 1 illustrates a comparison of the effect of […] et al. (2002) Circulation, 105: 290-292) with the effect of an apoJ peptide made from D amino acids (D-J336, […], SEQ ID NO:999)) on the prevention of LDL-induced monocyte chemotactic activity in vitro in a co-incubation. […] D-J336 or D-4F was added to other wells in a concentration range as indicated plus control human LDL (200 μg protein/ml). Following overnight incubation, the supernatants were assayed for monocyte chemotactic activity.

The test system of series [3] is ApoE null mice. The experiment in a line: Ability of LDL from apoE null mice given oral peptides to induce monocyte chemotactic activity (LDL susceptibility to oxidation). The series is classed as in vivo. Conditions: added to the drinking water, 24 hrs. Here is the method:
FIG. 5 illustrates the effect of oral apo A-1 peptide mimetic and apoJ peptide on LDL susceptibility to oxidation. […] After 24 hrs blood was collected from the mice shown in FIG. 4, plasma fractionated by FPLC and fractions containing LDL (designated as mLDL for murine LDL) were pooled and LDL susceptibility to oxidation as determined by induction of monocyte chemotactic activity was determined. For the assay controls the culture wells received no lipoproteins (no additions), mLDL alone (at 200 μg cholesterol/ml), or mLDL+standard normal human HDL (designated as Cont. h HDL, 350 μg HDL cholesterol).
Murine LDL, mLDL, from mice that received the D-4F (F mLDL) or those that received the apoJ peptide (J mLDL) were added to artery wall cell cultures.

Series [4] concerns ApoE null mice. The experiment in a line: Protection against LDL-induced monocyte chemotactic activity by HDL from apo E null mice given oral peptides. The class given is in vivo. Conditions: for activity of murine HDL against LDL-induced monocyte chemotactic activity: drinking water, 24 hrs, murine HDL at 100 μg/ml. The procedure: After 24 hrs blood was collected, plasma fractionated by FPLC and fractions containing LDL (designated as mLDL for murine LDL) and fractions containing HDL (designated as mHDL) were separately pooled and HDL protective capacity against LDL oxidation as determined by LDL-induced monocyte chemotactic activity was determined. For the assay controls the culture wells received no lipoproteins (no additions), mLDL alone (at 200 μg cholesterol/ml), or mLDL+standard normal human HDL (designated as Cont. h HDL, at 350 μg HDL cholesterol/ml).
For testing the murine HDL, mLDL together with murine HDL (+F mHDL or +J mHDL) were added to artery wall cell cultures. […] The murine HDL was used at 100 μg cholesterol/ml.

The test system of series [5] is ApoE null mice. The experiment in a line: HDL protective capacity against PAPC oxidation by HPODE, HDL from apo E null mice given oral peptides. The series is classed as in vivo. Conditions: added to the drinking water, 24 hrs; murine HDL 100 μg cholesterol/ml. Here is the method: After 24 hrs blood was collected, plasma fractionated by FPLC and fractions containing HDL (designated as mHDL) were pooled and HDL protective capacity against PAPC oxidation as determined by the induction of monocyte chemotactic activity was determined. For the assay controls the culture wells received no lipoproteins (no additions), the phospholipid PAPC at 20 μg/ml+HPODE, at 1.0 μg/ml, or PAPC+HPODE plus standard normal human HDL (at 350 μg HDL cholesterol/ml and designated as +Cont. h HDL).
For testing the murine HDL, PAPC+HPODE together with murine HDL (+F mHDL or +J mHDL) were added to artery wall cell cultures. […] The murine HDL was used at 100 μg cholesterol/ml.

The test system of series [6] is LDL receptor null mice. As to the kind of experiment: HDL protective capacity in LDL receptor null mice given peptide in drinking water. Conditions: 0.25 or 0.5 mg per ml drinking water, 24 or 48 hrs; mouse HDL at 100 μg/ml. The series is classed as in vivo. Here is the method:
D-4F designated as F, or the apoJ peptide made from D amino acids (D-J336, designated as J) was added to the drinking water of LDL receptor null mice (4 per group) at 0.25 or 0.5 mg per ml of drinking water. After 24- or 48-hrs blood was collected from the mice and their HDL was isolated and tested for its ability to protect against LDL-induced monocyte chemotactic activity. Assay controls included culture wells that received no lipoproteins (no addition), or control human LDL alone (designated as LDL, 200 μg cholesterol/ml), or control LDL+control human HDL (designated as +HDL, 350 μg HDL cholesterol). For testing the mouse HDL, the control LDL was added together with mouse HDL (+F HDL or +J HDL) to artery wall cell cultures. The mouse HDL was added at 100 μg cholesterol/ml respectively.

In series [7] the test system is PON1. Conditions: added to the drinking water, 24 hrs.
Experimental: After 24 hrs blood was collected and plasma was assayed for PON1 activity.
Series [8] deals with mice. The experiment in a line: LDL oxidation resistance after injection of apo A-I into mice. The class given is in vivo. The text has this:
(§1) We discovered that normal HDL inhibits three steps in the formation of mildly oxidized LDL. […] These seeding molecules were required for cocultures of human artery wall cells to be able to oxidize LDL and for the LDL to induce the artery wall cells to produce monocyte chemotactic activity.

Series [9] relates to human volunteers. The experiment in a line: LDL oxidation resistance after infusion of apo A-I into humans. The series is classed as in vivo.
Source text: as §1

Series [10] concerns human LDL. The experiment in a line: Treating human LDL in vitro, removal of seeding molecules. The class given is biochemical.
Source text: as §1

Series [11] deals with mice fed an atherogenic diet. Conditions: 20 μg daily; cited from earlier work.
Series [12] relates to ApoE null mice. As to the kind of experiment: HDL Inflammatory Index after D-4F or Reverse D-4F by stomach tube. The class given is in vivo. Conditions: 0, 3, 6, 12 or 25 micrograms by stomach tube, blood 7 hours later. The procedure:
Female apoE null mice were administered by stomach tube 0, 3, 6, 12, or 25 micrograms of D-4F or Reverse D-4F in 100 microliters of water. Blood was obtained 7 hours later and the plasma was fractionated by FPLC. A standard control human LDL was added to human artery wall cells at a concentration of 100 micrograms of LDL-cholesterol/mL (LDL). The resulting monocyte chemotactic activity was normalized to 1.0. The same LDL at the same concentration was added to the human artery wall cells together with HDL at 50 micrograms HDL-cholesterol/mL from a normal human (hHDL) or from the apoE null mice that received the dose of D-4F or Reverse D-4F shown on the X-axis. The resulting monocyte chemotactic activity was normalized to that of the LDL added without HDL. The resulting value is the HDL Inflammatory Index. The results shown are the Mean±S.D. for the data from three separate experiments.

Series [13] concerns ApoE null mice. The experiment in a line: Trabecular bone mineral density after D-4F in drinking water. The class given is in vivo. Conditions: drinking water for 6 weeks.
Series [14] deals with ApoE null mice. As to the kind of experiment: HDL and pre-beta HDL inhibition of LDL-induced monocyte chemotaxis after feeding solution-phase synthesized D-4F. The series is classed as in vivo. Conditions: 5 micrograms fed, bled twelve hours after feeding was started. The text has this:
ApoE null mice were fed 5 micrograms of the D-4F synthesized as described above (Frgmnt) or the mice were given the same amount of mouse chow without D-4F (Chow). Twelve hours after the feeding was started, the mice were bled and their plasma was fractionated on FPLC.

The conditions of series [15]: mouse, in vivo, po.
Series [16] concerns ApoE null mice. As to the kind of experiment: HDL function after D-4F and/or statin in drinking water for 24 hours. The class given is in vivo.
Series [17] deals with Obese Zucker rats. The experiment in a line: Plasma glucose and lipid hydroperoxides in obese Zucker rats given D-4F. The series is classed as in vivo. Conditions: 5.0 mg/kg/day intraperitoneal, 10 days, rats 26 weeks of age. Here is the method:
Obese Zucker rats 26 weeks of age were bled and then treated with daily intraperitoneal injections of D-4F (5.0 mg/kg/day). After 10 days the rats were bled again plasma glucose and lipid hydroperoxides (LOOH) were determined. *p=0.027; ** p=0.0017.

Series [18] can be described thus: Association with pre-beta HDL/HDL and clearance from the circulation after an oral dose.

For the molecule Ac-LLEQLNEQFNWVSRLANLTQGE-NH2 [D-J336], the “potency in preventing LDL oxidation by artery wall cells in vitro relative to D-4F” value in [1] is given as 10-25 times more potent. Further, the “in vitro concentration that prevents LDL-induced monocyte chemotactic activity, relative to the concentration required for D-4F” value in series [2] is given as 10 to 25 times less. The “potency in rendering LDL resistant to oxidation by human artery wall cells compared with D-4F” value in series [3] is “slightly more potent than D-4F”. Moreover, in series [4] (added to the drinking water, apo E null mice), the “potency in enhancing HDL protective capacity compared with D-4F” value is “as potent as D-4F”. The “activity of murine HDL against LDL-induced monocyte chemotactic activity” value in series [4] is “as active as 350 μg/ml of normal human HDL”. The “potency in causing HDL to inhibit oxidation of PAPC by HPODE compared with D-4F” value in [5] is on record as “as potent as D-4F”. The “activity of mouse HDL in preventing control LDL from inducing monocyte chemotactic activity” value in series [6] was “as active as 350 μg/ml of control human HDL”. Further, in series [7], the “potency in increasing paraoxonase activity compared with D-4F” value was “at least as potent as D-4F”.

“apo A-I: the major protein of HDL, apolipoprotein A-I”: the “oxidation of LDL isolated after injection, by human artery wall cells” value in [8] is reported as “resistant to oxidation by human artery wall cells”. The “oxidation of LDL isolated after infusion, by human artery wall cells” value in series [9] is on record as “resistant to oxidation by human artery wall cells”. Also, in series [10], the “effect on seeding molecules (HPODE, HPETE) of human LDL” value is “removed seeding molecules from the LDL”.

Take “Ac-D-W-L-K-A-F-Y-D-K-V-F-E-K-F-K-E-F-F-NH2 (Ac-DWLKAFYDKVFEKFKEFF-NH2) [Peptide 5F]”: the “LDL oxidation and induction of monocyte chemotactic activity, PBS-injected versus peptide-injected mice” value in [11] was “more readily oxidized and more readily induced monocyte chemotactic activity”.

Consider “Ac-DWFKAFYDKVAEKFKEAF-NH2 [Peptide D-4F]”, for which, in series [12], the “biological activity (HDL Inflammatory Index), D-4F versus Reverse D-4F” value is “not significantly different”. The “activity of murine HDL against LDL-induced monocyte chemotactic activity” value in series [4] is listed as “as active as 350 μg/ml of normal human HDL”. Moreover, the “trabecular bone mineral density” value in series [13] was “dramatically increased”. The “biological activity in producing HDL and pre-beta HDL that inhibit LDL-induced monocyte chemotaxis” value in [14] is recorded as “very biologically active”. In series [15], the “association with pre-beta HDL and HDL” value is “rapidly associates with pre-beta HDL and HDL”; the “detectability in the circulation” value is reported as “essentially non-detectable”. Moreover, the “activity of mouse HDL in preventing control LDL from inducing monocyte chemotactic activity” value in [6] is reported as “as active as 350 μg/ml of control human HDL”. The “HDL function, D-4F alone” value in series [16] (1 μg/ml in drinking water for 24 hours) is recorded as “did not significantly improve HDL function; also recorded: no effect on HDL function”. Also, the “HDL function, D-4F together with statin” value in [16] (D-4F 1 μg/ml together with 0.05 mg/ml of atorvastatin or pravastatin in drinking water) was “significant improvement in HDL function”. Further, the “anti-inflammatory activity of apoE null HDL compared with normal human HDL, D-4F together with statin” value in [16] (mouse HDL at 50 μg/ml of HDL-cholesterol, HPODE oxidizing PAPC in cocultures of human artery wall cells) is listed as “as anti-inflammatory as 350 μg/ml of normal human HDL; also recorded: as effective as normal human HDL at 350 μg/ml of HDL-cholesterol”. For the same molecule, in [17], the “symptoms of diabetes (blood glucose, lipid hydroperoxides)” value is listed as “effective in mitigating symptoms of diabetes”.

Consider “Ac-L V G R Q L E E F L-NH2 [D-[113-122]apoJ]”, for which the “association with pre-beta HDL and HDL” value in series [18] (after an oral dose) is “slowly associates with pre-beta HDL and to a lesser extent with HDL”. For the same molecule, the “time remaining associated with HDL fractions” value in series [18] (mouse, in vivo) is reported as “at least 36 hours”.

As to `CC(C)c1c(C(=O)Nc2ccccc2)c(-c2ccccc2)c(-c2ccc(F)cc2)n1CC[C@@H](O)C[C@@H](O)CC(=O)O` [atorvastatin, reference compound], in series [16] (0.05 mg/ml in drinking water for 24 hours), the “HDL function, statin alone” value is recorded as “did not improve HDL function”.

As to “Ac-FAEKFKEAVKDYFAKFWD-NH2 [Reverse D-4F]”, in series [12], the “biological activity (HDL Inflammatory Index), D-4F versus Reverse D-4F” value is listed as “not significantly different”.
